Source: patent US10004701B2, “Methods and compositions for treating infection” (UNIVERSITY OF ROCHESTER, priority 2012, dated 2018)
Structures can show the parent of a compound that is named as a salt. Where two headings read alike, the source gives them in different places.

Key:
Experiment in all cases: AK assay 384-well format, Prestwick library screening
E. faecium = assay type: cell-based, Enterococcus faecium; settings: 50 μM final drug concentration; for fold induction at 50 µM: Enterococcus faecium, 3 h
E. cloacae = assay type: cell-based, Enterobacter cloacae; settings: 50 μM final drug concentration; for fold induction at 50 µM: Enterobacter cloacae, 3 h
K. pneumoniae = assay type: cell-based, Klebsiella pneumoniae; settings: 50 μM final drug concentration; for fold induction at 50 µM: Klebsiella pneumoniae, 3 h
E. coli = assay type: cell-based, Escherichia coli; settings: for fold induction at 50 µM: Escherichia coli, 3 h
P. aeruginosa = assay type: cell-based, Pseudomonas aeruginosa; settings: 50 μM final drug concentration; for fold induction at 50 µM: Pseudomonas aeruginosa, 3 h
[1] = test system: S. aureus strain USA300-0114; assay type: cell-based, Staphylococcus aureus; settings: 50 μM final drug concentration; for fold induction at 50 µM: Staphylococcus aureus, USA300, 3 h
[2] = test system: A. baumannii strain 98-37-09; assay type: cell-based, Acinetobacter baumannii; settings: 50 μM final drug concentration; for fold induction at 50 µM: Acinetobacter baumannii, 983709, 3 h
[3] = planktonic E. faecium, 384-well, […], read-out: AK-based Prestwick Library Screening Results: E. faecium (increase in extracellular AK activity)
[4] = planktonic E. cloacae, 384-well, […], read-out: AK-based Prestwick Library Screening Results: E. cloacae (increase in extracellular AK activity)
[5] = planktonic K. pneumoniae, 384-well, […], read-out: AK-based Prestwick Library Screening Results: K. pneumoniae (increase in extracellular AK activity)
[6] = planktonic P. aeruginosa, 384-well, […], read-out: AK-based Prestwick Library Screening Results: P. aeruginosa (increase in extracellular AK activity)
[7] = planktonic S. aureus, 384-well, […], read-out: AK-based Prestwick Library Screening Results: S. aureus (increase in extracellular AK activity)
[8] = planktonic A. baumannii, 384-well, […], read-out: AK-based Prestwick Library Screening Results: A. baumannii (increase in extracellular AK activity)
[9] = cutoff for positive-scoring molecules 3-fold increase
[10] = 50 μM final drug concentration, cutoff for positive-scoring molecules 3-fold increase

COP(=O)(OC)C(O)C(Cl)(Cl)Cl (stereo not drawn) [Trichlorfon]
fold induction at 50 µM (E. faecium; [3]): 0.8
fold induction at 50 µM (E. cloacae; [4]): 1.5
fold induction at 50 µM (K. pneumoniae; [5]): 1.1
fold induction at 50 µM (E. coli; planktonic E. coli, 50 μM final drug concentration, 384-well, […], read-out: AK-based Prestwick Library Screening Results: E. coli (increase in extracellular AK activity)): 1.2
fold induction at 50 µM (P. aeruginosa; [6]): 1
fold induction at 50 µM [1, 7]: 1.1
fold induction at 50 µM [2, 8]: 0.9

NS(=O)(=O)c1cc2c(cc1Cl)NC(C(Cl)Cl)NS2(=O)=O (stereo not drawn) [Trichlormethiazide]
fold induction at 50 µM (E. faecium; planktonic, cutoff for positive-scoring molecules 3-fold increase, read-out: AK-based Prestwick Library Screening Results, E. faecium (fold increase in extracellular AK activity)): 1.4
fold induction at 50 µM (E. cloacae; planktonic, cutoff for positive-scoring molecules 3-fold increase, read-out: AK-based Prestwick Library Screening Results, E. cloacae (fold increase in extracellular AK activity)): 1.2
fold induction at 50 µM (K. pneumoniae; planktonic, cutoff for positive-scoring molecules 3-fold increase, read-out: AK-based Prestwick Library Screening Results, K. pneumoniae (fold increase in extracellular AK activity)): 0.8
fold induction at 50 µM (E. coli; 50 μM final drug concentration, planktonic, cutoff for positive-scoring molecules 3-fold increase, read-out: AK-based Prestwick Library Screening Results, E. coli (fold increase in extracellular AK activity)): 0.8
fold induction at 50 µM (P. aeruginosa; planktonic, cutoff for positive-scoring molecules 3-fold increase, read-out: AK-based Prestwick Library Screening Results, P. aeruginosa (fold increase in extracellular AK activity)): 0.8
fold induction at 50 µM ([1]; planktonic, cutoff for positive-scoring molecules 3-fold increase, read-out: AK-based Prestwick Library Screening Results, S. aureus (fold increase in extracellular AK activity)): 1.3
fold induction at 50 µM ([2]; planktonic, cutoff for positive-scoring molecules 3-fold increase, read-out: AK-based Prestwick Library Screening Results, A. baumannii (fold increase in extracellular AK activity)): 1

CC[N+](CC)(CC)CCC(O)(c1ccccc1)C1CCCCC1.[Cl-] (stereo not drawn) [Tridihexethyl chloride]
AK-based Prestwick Library Screening Results, E. faecium (fold increase in extracellular AK activity) (E. faecium; [9]): 0.8
AK-based Prestwick Library Screening Results, E. cloacae (fold increase in extracellular AK activity) (E. cloacae; [9]): 0.3
AK-based Prestwick Library Screening Results, K. pneumoniae (fold increase in extracellular AK activity) (K. pneumoniae; [9]): 0.4
AK-based Prestwick Library Screening Results, E. coli (fold increase in extracellular AK activity) (E. coli; [10]): 0.4
AK-based Prestwick Library Screening Results, P. aeruginosa (fold increase in extracellular AK activity) (P. aeruginosa; [9]): 0.4
AK-based Prestwick Library Screening Results, S. aureus (fold increase in extracellular AK activity) [1, 9]: 0.4
AK-based Prestwick Library Screening Results, A. baumannii (fold increase in extracellular AK activity) [2, 9]: 0.4

CN1CCN(CCCN2c3ccccc3Sc3ccc(C(F)(F)F)cc32)CC1 [Trifluoperazine dihydrochloride]
fold induction at 50 µM (E. faecium; planktonic E. faecium, 384-well, cutoff for positive-scoring molecules 3-fold increase, read-out: AK-based Prestwick Library Screening Results: E. faecium (increase in extracellular AK activity)): 1.1
fold induction at 50 µM (E. cloacae; planktonic E. cloacae, 384-well, cutoff for positive-scoring molecules 3-fold increase, read-out: AK-based Prestwick Library Screening Results: E. cloacae (increase in extracellular AK activity)): 1.3
fold induction at 50 µM (K. pneumoniae; planktonic K. pneumoniae, 384-well, cutoff for positive-scoring molecules 3-fold increase, read-out: AK-based Prestwick Library Screening Results: K. pneumoniae (increase in extracellular AK activity)): 1.5
fold induction at 50 µM (E. coli; planktonic E. coli, 50 μM final drug concentration, 384-well, cutoff for positive-scoring molecules 3-fold increase, read-out: AK-based Prestwick Library Screening Results: E. coli (increase in extracellular AK activity)): 1.7
fold induction at 50 µM (P. aeruginosa; planktonic P. aeruginosa, 384-well, cutoff for positive-scoring molecules 3-fold increase, read-out: AK-based Prestwick Library Screening Results: P. aeruginosa (increase in extracellular AK activity)): 1.4
fold induction at 50 µM ([1]; planktonic S. aureus, 384-well, cutoff for positive-scoring molecules 3-fold increase, read-out: AK-based Prestwick Library Screening Results: S. aureus (increase in extracellular AK activity)): 1.2
fold induction at 50 µM ([2]; planktonic A. baumannii, 384-well, cutoff for positive-scoring molecules 3-fold increase, read-out: AK-based Prestwick Library Screening Results: A. baumannii (increase in extracellular AK activity)): 3.4

CN(C)CCCN1c2ccccc2Sc2ccc(C(F)(F)F)cc21 [Triflupromazine hydrochloride]
fold induction at 50 µM (E. faecium; [3]): 0.9
fold induction at 50 µM (E. cloacae; [4]): 1.6
fold induction at 50 µM (K. pneumoniae; [5]): 1
fold induction at 50 µM (E. coli; read-out: AK-based Prestwick Library Screening Results: E. coli (increase in extracellular AK activity)): 1.1
fold induction at 50 µM (P. aeruginosa; [6]): 1
fold induction at 50 µM [1, 7]: 1.1
fold induction at 50 µM [2, 8]: 1.5

O=c1[nH]c(=O)n([C@H]2C[C@H](O)[C@@H](CO)O2)cc1C(F)(F)F [Trifluridine]
fold induction at 50 µM (E. faecium; planktonic E. faecium, […], read-out: AK-based Prestwick library screening result, E. faecium (fold increase in extracellular AK activity)): 0.9
fold induction at 50 µM (E. cloacae; planktonic E. cloacae, […], read-out: AK-based Prestwick library screening result, E. cloacae (fold increase in extracellular AK activity)): 0.7
fold induction at 50 µM (K. pneumoniae; planktonic K. pneumoniae, […], read-out: AK-based Prestwick library screening result, K. pneumoniae (fold increase in extracellular AK activity)): 1.1
fold induction at 50 µM (E. coli; planktonic E. coli, 50 μM final drug concentration, […], read-out: AK-based Prestwick library screening result, E. coli (fold increase in extracellular AK activity)): 0.9
fold induction at 50 µM (P. aeruginosa; planktonic P. aeruginosa, […], read-out: AK-based Prestwick library screening result, P. aeruginosa (fold increase in extracellular AK activity)): 0.6
fold induction at 50 µM ([1]; planktonic S. aureus, […], read-out: AK-based Prestwick library screening result, S. aureus (fold increase in extracellular AK activity)): 0.7
fold induction at 50 µM ([2]; planktonic A. baumannii, […], read-out: AK-based Prestwick library screening result, A. baumannii (fold increase in extracellular AK activity)): 1.1

CC(=O)Oc1cc(C(F)(F)F)ccc1C(=O)O [Triflusal]
fold induction at 50 µM (E. faecium; planktonic, […], read-out: AK-based Prestwick Library Screening Results, E. faecium (fold increase in extracellular AK activity)): 1
fold induction at 50 µM (E. cloacae; planktonic, […], read-out: AK-based Prestwick Library Screening Results, E. cloacae (fold increase in extracellular AK activity)): 1.3
fold induction at 50 µM (K. pneumoniae; planktonic, […], read-out: AK-based Prestwick Library Screening Results, K. pneumoniae (fold increase in extracellular AK activity)): 0.9
fold induction at 50 µM (E. coli; 50 μM final drug concentration, planktonic, […], read-out: AK-based Prestwick Library Screening Results, E. coli (fold increase in extracellular AK activity)): 1.2
fold induction at 50 µM (P. aeruginosa; planktonic, […], read-out: AK-based Prestwick Library Screening Results, P. aeruginosa (fold increase in extracellular AK activity)): 1.2
fold induction at 50 µM ([1]; planktonic, […], read-out: AK-based Prestwick Library Screening Results, S. aureus (fold increase in extracellular AK activity)): 1.4
fold induction at 50 µM ([2]; planktonic, […], read-out: AK-based Prestwick Library Screening Results, A. baumannii (fold increase in extracellular AK activity)): 1

C[n+]1cccc(C(=O)[O-])c1 [Trigonelline]
fold induction at 50 µM (E. faecium; planktonic E. faecium, cutoff for positive-scoring molecules 3-fold increase, read-out: AK-based Prestwick Library Screening Results, E. faecium (increase in extracellular AK activity)): 0.9
fold induction at 50 µM (E. cloacae; planktonic E. cloacae, cutoff for positive-scoring molecules 3-fold increase, read-out: AK-based Prestwick Library Screening Results, E. cloacae (increase in extracellular AK activity)): 1.2
fold induction at 50 µM (K. pneumoniae; planktonic K. pneumoniae, cutoff for positive-scoring molecules 3-fold increase, read-out: AK-based Prestwick Library Screening Results, K. pneumoniae (increase in extracellular AK activity)): 0.7
fold induction at 50 µM (E. coli; planktonic E. coli, 50 μM final drug concentration, cutoff for positive-scoring molecules 3-fold increase, read-out: AK-based Prestwick Library Screening Results, E. coli (increase in extracellular AK activity)): 0.9
fold induction at 50 µM (P. aeruginosa; planktonic P. aeruginosa, cutoff for positive-scoring molecules 3-fold increase, read-out: AK-based Prestwick Library Screening Results, P. aeruginosa (increase in extracellular AK activity)): 0.8
fold induction at 50 µM ([1]; planktonic S. aureus, cutoff for positive-scoring molecules 3-fold increase, read-out: AK-based Prestwick Library Screening Results, S. aureus (increase in extracellular AK activity)): 0.8
fold induction at 50 µM ([2]; planktonic A. baumannii, cutoff for positive-scoring molecules 3-fold increase, read-out: AK-based Prestwick Library Screening Results, A. baumannii (increase in extracellular AK activity)): 0.9

Cl.OC(CCN1CCCCC1)(c1ccccc1)C1CCCCC1 (stereo not drawn) [Trihexyphenidyl-D,L Hydrochloride]
AK-based Prestwick Library Screening Results, E. faecium (fold increase in extracellular AK activity) (E. faecium; [9]): 1.1
AK-based Prestwick Library Screening Results, E. cloacae (fold increase in extracellular AK activity) (E. cloacae; [9]): 1.5
AK-based Prestwick Library Screening Results, K. pneumoniae (fold increase in extracellular AK activity) (K. pneumoniae; [9]): 1.1
AK-based Prestwick Library Screening Results, E. coli (fold increase in extracellular AK activity) (E. coli; [10]): 1.2
AK-based Prestwick Library Screening Results, P. aeruginosa (fold increase in extracellular AK activity) (P. aeruginosa; [9]): 1.3
AK-based Prestwick Library Screening Results, S. aureus (fold increase in extracellular AK activity) [1, 9]: 1.4
AK-based Prestwick Library Screening Results, A. baumannii (fold increase in extracellular AK activity) [2, 9]: 1.4
